Measured values from paper PMC11879280, “Antimicrobial activity of peptoids against Metallo-β-lactamase-producing Klebsiella pneumoniae, Acinetobacter baumannii, Pseudomonas aeruginosa, and other WHO priority pathogens, including Candida auris” (Journal of Applied Microbiology, 2025).
Converted amounts (≈) assume the structure as drawn. Read-outs that look alike come from different tables or passages of the source. Square brackets hold non-standard residues; d marks the D form. Peptide text beside a SMILES is read from it. Nspe = C[C@H](NCC(=O)O)c1ccccc1; NDecylGly = CCCCCCCCCCNCC(=O)O; Nlys = NCCCCNCC(=O)O

Legend:
[1] = tested on: C. auris CBS12373; assay: Broth microdilution MIC; assay type: cell-based, Candida auris
[2] = tested on: Enterobacteriaceae; assay: Geometric mean MIC, therapeutic index and selectivity ratio, Enterobacteriaceae; assay type: cell-based; settings: Enterobacteriaceae (E. coli, K. pneumoniae, and E. aerogenes)
Protocol: (§1) Briefly, bacteria were suspended in cation-adjusted Mueller–Hinton broth (CAMHB; Oxoid, UK) for antibiotics, or MHB (Oxoid, UK) for peptidomimetics to obtain 5 × 10^5 colony forming unit (CFU) ml^−1. […] Positive controls contained only microbes, and blanks contained only media. Microbial suspensions (100 µl) were added to wells, plates wrapped, and incubated at 37°C, 120 rpm for 16–20 h. After incubation, suspensions were removed, log10 diluted, and plated on Trypticase Soya Agar with phosphatidylcholine and Tween 80 to determine minimum bactericidal or fungicidal concentration (MBC or MFC). […] Geometric mean MIC of the peptoids were calculated to evaluate the broad overview of antimicrobial activity across the pathogens.
(§2) The therapeutic indices (TIs) of the compounds were calculated with the use of following formula: […]

[3] = tested on: MBL-producing bacteria; assay: Geometric mean MIC, therapeutic index and selectivity ratio, MBL-producing bacteria; assay type: cell-based
Protocol: as §1
The test was performed as per the manufacturer’s instructions. Briefly, the strips were applied to a lawn culture of bacteria maintained at 1.5 × 10^8 CFU ml^−1 on Mueller–Hinton agar (Oxoid, UK) and incubated for 20 h at 37°C.
as §2

[4] = tested on: C. auris strains
Protocol: as §1, §2

[5] = tested on: horse red blood cells (RBCs); assay: Haemolysis assay; assay type: cell-based
Protocol: The haemolytic activity of the peptidomimetics was performed to determine mammalian cell safety. This assay used horse red blood cells (RBCs) (Sigma–Aldrich, USA) as described previously (Willcox et al. [2008], Chongsiriwatana et al. [2017], Yasir et al. [2019b]). RBCs were washed three times with PBS at 470 g for 5 min. Peptoids (0.5–250 μg ml^−1) were prepared in PBS and added to washed RBCs, then incubated at 37°C for 4 h. After incubation, cells were centrifuged at 1057 g for 10 min, and the supernatant’s OD at 540 nm was measured for lysis. PBS-only RBCs served as the negative control (no haemolysis), and Milli-Q water-treated RBCs as the positive control (100% lysis). Percent haemolysis was calculated as: (ODT − ODNC)/(ODPC − ODNC) × 100, where ODT, ODNC, and ODPC are the absorbances of the test, negative, and positive controls, respectively. This experiment was performed in triplicate.

[6] = tested on: C. auris CBS10913; assay: Checkerboard microdilution synergy test; assay type: cell-based, Candida auris
Protocol: (§3) The checkerboard microdilution test was performed to determine the fractional inhibitory concentration (FIC) of selected antimicrobials and assess whether the combination had synergistic, antagonistic, or indifferent effects (Anon [2016]) against strains of K. pneumoniae or C. auris. […] Additionally, a strain susceptible to ciprofloxacin was tested to observe the outcome of its combination with TM8 as a representative case from susceptible isolates. […] Then, 10 µl of bacteria (5 × 10^6 CFU ml^−1) or C. auris (2.5 × 10^4 CFU ml^−1) were added to each well, except for the sterility control well. […] The sterility control wells contained only MHB (or RPMI in case of C. auris), and the growth control contained 110 µl of microbial inoculum with no antimicrobials. Subsequently, the plates were incubated for 18- 24 hours at 36 ± 1 °C.
(§4) The FIC for each combination interaction was calculated as follows:
(§5) Then, the summation of FIC (ƩFIC) was calculated for each antimicrobial combination as follows: ƩFIC = FICA + FICB. The results were interpretated as follows: Synergy if ƩFIC ≤ 0.5; Additive if 0.5<ƩFIC ≤ 1; Indifference if […] ≤ 4; and Antagonism if ƩFIC > 4 (Odds [2003]). All antimicrobial synergy experiments were repeated in at least two independent runs.

[7] = tested on: C. auris CBS12373; assay: Checkerboard microdilution synergy test; assay type: cell-based, Candida auris
Protocol: as §3, §4, §5

[8] = tested on: C. auris CBS12373 biofilm; assay type: cell-based, Candida auris
Protocol: Another set of experiments was conducted under similar conditions similar to those used for MTT assay.

[9] = tested on: C. auris CBS 10913; assay: microbe, parasite or virus in culture; assay type: cell-based, Candida auris; settings: CBS 10913, 48 h
Protocol: Amphotericin B was tested in parallel as a positive control (Ramesh et al. [2023]).

[10] = tested on: Gram-positive bacteria (Enteroc. faecalis and S. aureus)
In short: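 Each strain, at 5 × 10^5 CFU ml^−1, is exposed to compound in Mueller–Hinton-based broth (cation-adjusted for antibiotics) and incubated 16–20 h, 37°C, 120 rpm. Bactericidal concentrations come from plating log10 dilutions of the wells on supplemented agar.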

[11] = tested on: C. auris CBS10913
[12] = tested on: MBL phenotypes of A. baumannii; settings: MBL phenotypes of
Protocol: Briefly, bacteria were suspended in cation-adjusted Mueller–Hinton broth (CAMHB; Oxoid, UK) for antibiotics, or MHB (Oxoid, UK) for peptidomimetics to obtain 5 × 10^5 colony forming unit (CFU) ml^−1. […] Positive controls contained only microbes, and blanks contained only media. Microbial suspensions (100 µl) were added to wells, plates wrapped, and incubated at 37°C, 120 rpm for 16–20 h. […] Geometric mean MIC of the peptoids were calculated to evaluate the broad overview of antimicrobial activity across the pathogens.

[13] = tested on: S. aureus, K. pneumoniae, P. aeruginosa, and En. cloacae biofilm; settings: ref Nielsen et al. [2022]; cited from earlier work
Text: Another way microbes can acquire tolerance and become resistant to antimicrobials is by the production of biofilms. In biofilms, microbes switch from planktonic state to sessile form, where they are encased in an extracellular polymeric substance matrix, thereby being protected from stressful environmental conditions (Di Fermo et al. [2024]). Most ESKAPEE pathogens and C. auris form antimicrobial tolerant biofilms associated with device-associated infections (Kean and Ramage [2019], Sarkar et al. [2024]). The antibiofilm activity of some of these peptoids has already been studied against ESKAP ...

CCCCCCCCCCNCC(=O)N(CCCCN)CC(=O)N(CC(=O)N(CC(=O)N(CCCCN)CC(=O)N(CC(=O)N(CC(N)=O)[C@@H](C)c1ccccc1)[C@@H](C)c1ccccc1)[C@@H](C)c1ccccc1)[C@@H](C)c1ccccc1 [TM8] (H-[NDecylGly][Nlys][Nspe][Nspe][Nlys][Nspe][Nspe]-NH2)
MIC against C. auris ([1]; CBS 12 373, RPMI 1640 with MOPS, 5 × 10^3 CFU ml^−1, ≥90% reduction (≥50% for fluconazole)): 3.9 µg/mL | MIC90 ([1]; CBS12373): 15.6 µg/mL (≈ 14 µM) | MIC against C. auris ([1]; CBS12373): 3.5 µM | Geometric mean MICE [2]: 11.0 µg/mL | Geometric mean MICMBL [3]: 7.8 µg/mL | MIC against both C. auris strains ([4]; strains): < 10 µg/mL | Geometric mean MICCA ([4]; two C. auris strains): 5.5 µg/mL | HD10 (10% haemolytic dose) [5]: 7.2 µmol/L | HD50 (50% haemolytic dose) [5]: 24.4 µmol/L | HD10 (10% haemolytic dose) ([5]; red cells of horse, 4 h): 8 µg/mL | HD50 (50% haemolytic dose) ([5]; red cells of horse, 4 h): 27.2 µg/mL | MIC of TM8 (alone, checkerboard) [6]: 7.813 µg/mL | FICTM8 ([6]; TM8 with Fluconazole): 0.5 | MF of TM8 (modulation factor) ([6]; TM8 with Fluconazole): 2 | ƩFIC ([6]; TM8 with Fluconazole): 0.563 | MIC of TM8 (alone, checkerboard) [7]: 3.9 µg/mL | FICTM8 ([7]; TM8 with Fluconazole): 0.5 | MF of TM8 (modulation factor) ([7]; TM8 with Fluconazole): 2 | ƩFIC ([7]; TM8 with Fluconazole): 0.563 | MBEC for mature biofilm [8]: 125 µg/mL | MIC in the absence of ergosterol [9]: 7.8 µg/mL | MIC in the presence of exogenous ergosterol [9]: 31.25 µg/mL | MIC range [10]: 3.9 to 7.8 µg/mL | MIC against C. auris ([11]; CBS 10 913, RPMI 1640 with MOPS, 5 × 10^3 CFU ml^−1, ≥90% reduction (≥50% for fluconazole)): 7.8 µg/mL | MIC against C. auris ([11]; CBS10913): 7.0 µM | MIC at high cell density ([11]; CBS10913): 15.6 µg/mL (≈ 14 µM) | MIC [12]: ≤ 7.8 µg/mL | Concentration with significant inhibition of biofilm formation [13]: 1.56 µg/mL
